How the values were obtained:
[1] = molecular target: T1, Human COX-2 (Homo sapiens, UniProt P35354); test: Human COX-2 test (LPS-stimulated human monocytoid cell line, arachidonic acid, cyclooxygenase products by ELISA); assay type: cell-based; conditions: for IC50: human monocytoid cell line, LPS-stimulated, half an hour pre-incubation, arachidonic acid 15 minutes, ELISA, read-out: COX II IC50; for COX I/COX II: selectivity obtained from the two tests, ratio of COX I IC50 to COX II IC50
T1 construct: endogenous in cells
T1 sequence (P35354 18-604): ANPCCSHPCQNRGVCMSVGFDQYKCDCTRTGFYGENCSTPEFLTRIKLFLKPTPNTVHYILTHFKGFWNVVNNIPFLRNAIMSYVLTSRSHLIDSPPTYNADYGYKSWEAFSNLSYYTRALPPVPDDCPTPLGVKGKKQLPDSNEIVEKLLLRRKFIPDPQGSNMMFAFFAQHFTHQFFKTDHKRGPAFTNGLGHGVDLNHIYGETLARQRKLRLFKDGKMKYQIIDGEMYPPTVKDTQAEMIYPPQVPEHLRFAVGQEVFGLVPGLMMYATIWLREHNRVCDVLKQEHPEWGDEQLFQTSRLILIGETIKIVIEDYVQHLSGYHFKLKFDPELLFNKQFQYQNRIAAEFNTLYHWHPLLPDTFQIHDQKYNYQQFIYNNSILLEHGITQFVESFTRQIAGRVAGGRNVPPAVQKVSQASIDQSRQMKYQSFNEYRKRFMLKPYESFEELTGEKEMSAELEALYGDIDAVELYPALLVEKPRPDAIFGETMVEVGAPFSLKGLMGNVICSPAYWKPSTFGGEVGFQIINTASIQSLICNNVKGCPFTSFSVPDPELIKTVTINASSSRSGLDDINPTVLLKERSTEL
Experimental: Cells from a human monocytoid cell line are stimulated with LPS (incubator at 37° C., 5% CO2 -enriched atmosphere and approximately 100% relative humidity), in order to induce COX-2. Then the culture medium (RPMI 1640 enriched with 10% FCS, 2 mM glutamine, […], […] and 1 mM pyruvate) was renewed and potential inhibitors of cyclooxygenase-2, dissolved in culture medium or in phosphate-buffered saline or in any other solvent which is compatible with cell culture, were added and incubated for half an hour as described above. Arachidonic acid was pipetted in and incubation was continued for 15 minutes. The culture supernatant of the cells was removed and its content of products of cyclooxygenase metabolism (such as prostaglandin E2, prostaglandin F1a and thromboxane B2) was measured by ELISA.

[2] = molecular target: T2, Human COX 1 (Homo sapiens, UniProt P23219); test: Human COX 1 test (arachidonic acid-induced aggregation of washed human thrombocytes); assay type: cell-based; conditions: arachidonic acid 10 μM, 37° C., substance added 2 minutes before, read-out: COX I IC50
T2 construct: arachidonic acid-induced aggregation of washed human thrombocytes; endogenous in cells; host or cells: washed human thrombocytes (platelets)
T2 sequence (P23219 24-599): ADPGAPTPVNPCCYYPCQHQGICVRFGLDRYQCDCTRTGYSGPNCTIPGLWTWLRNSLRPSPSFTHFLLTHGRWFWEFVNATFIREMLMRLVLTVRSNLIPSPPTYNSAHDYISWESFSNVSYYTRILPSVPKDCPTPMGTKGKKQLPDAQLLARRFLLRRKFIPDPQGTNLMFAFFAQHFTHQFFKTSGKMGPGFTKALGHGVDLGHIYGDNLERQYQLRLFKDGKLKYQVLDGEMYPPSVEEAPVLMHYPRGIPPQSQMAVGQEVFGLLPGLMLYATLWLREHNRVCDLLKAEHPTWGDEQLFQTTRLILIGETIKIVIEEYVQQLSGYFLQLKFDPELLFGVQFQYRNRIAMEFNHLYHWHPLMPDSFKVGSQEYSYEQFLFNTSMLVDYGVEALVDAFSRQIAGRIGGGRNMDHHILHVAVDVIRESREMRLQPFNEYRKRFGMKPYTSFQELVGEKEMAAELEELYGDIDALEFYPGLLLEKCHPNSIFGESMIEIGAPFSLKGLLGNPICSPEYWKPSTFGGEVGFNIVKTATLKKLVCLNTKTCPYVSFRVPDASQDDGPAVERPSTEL
Experimental: The inhibition of arachidonic acid-induced aggregation of washed human thrombocytes was used as a test system for assessing the inhibition of cyclooxygenase I. The test substances were added to a thrombocyte suspension at 37° C. 2 minutes before the addition of the arachidonic acid (final concentration 10 μM) and the course of aggregation was measured using an aggregometer. By means of a concentration-activity curve the concentration of test substance at which 50% aggregation is measured was determined (IC50).

Row | Structure (SMILES) | IC50 [1] | COX I/COX II [1] | IC50 [2]
1 | CS(=O)(=O)Nc1ccc(S(N)(=O)=O)cc1Oc1ccc(Cl)cc1Cl [Example 1, 3-(2,4-Dichlorophenoxy)-4-methylsulphonylamino-benzenesulphonamide] | 100 nM | ≥ 500 | ≥ 50000 nM
2 | CS(=O)(=O)Nc1cc2c(cc1Oc1ccccc1)S(=O)(=O)NC2 [Example 4, 6-(Phenoxy) -5-methylsulphonylamino-2H-1,2-benzothiazolidin-1,1-dioxide] | 110 nM | ≥ 450 | ≥ 45000 nM
3 | CS(=O)(=O)Nc1ccc(S(N)(=O)=O)cc1Sc1ccc(Cl)cc1 [Example 17, 3-(4-Chlorophenylthio) -4-methylsulphonylaminobenzenesulphonamide] | 170 nM | 353 | 60000 nM
4 | CS(=O)(=O)Nc1ccc(S(N)(=O)=O)cc1SC1CCCCC1 [Example 19, 3-(Cyclohexylthio)-4-methylsulphonylaminobenzene-sulphonamide] | 540 nM | ≥ 110 | ≥ 60000 nM
5 | CS(=O)(=O)Nc1ccc(S(N)(=O)=O)cc1Sc1ccccc1Cl [Example 25, 3-(2-Chlorophenylthio)-4-methylsulphonylaminobenzene-sulphonamide] | 170 nM | ≥ 196 | ≥ 35000 nM
6 | CS(=O)(=O)Nc1ccc(S(N)(=O)=O)cc1Sc1ccc(Br)cc1 [Example 26, 3-(4-Bromophenylthio)-4-methylsulphonylaminobenzenesulphonamide] | 270 nM | ≥ 253 | ≥ 70000 nM

The next lines start with the values.

Row | IC50 [1] | COX I/COX II [1] | IC50 [2] | Structure (SMILES)
7 | 200 nM | 260 | 52000 nM | CS(=O)(=O)Nc1ccc(S(N)(=O)=O)cc1Sc1ccc(F)cc1F [Example 6, 3-(2,4-Difluorothiophenoxy)-4-methylsulphonylamino-benzenesulphonamide]
8 | 27 nM | 1000 | 27000 nM | CS(=O)(=O)Nc1ccc(S(N)(=O)=O)cc1Sc1ccc(Cl)cc1Cl [Example 7, 3-(2,4-Dichlorothiophenoxy)-4-methylsulphonylamino-benzenesulphonamide]
9 | 150 nM | 73 | 11000 nM | CS(=O)(=O)Nc1ccc(S(N)(=O)=O)cc1Sc1ccc(F)cc1Cl [Example 8, 3-(2-Chloro-4-fluorothiophenoxy)-4-methylsulphonylamino-benzene-sulphonamide]

Source: patent US6004948A, “Derivatives of benzosulphonamides as inhibitors of the enzyme cyclooxygenase II” (Nycomed Austria GmbH, priority 1995, dated 1999)
